“Also recorded” adds a separate entry of the source. Read-outs that look alike come from different tables or passages of the source.
How the values were obtained:
[1] = in vitro; details: human, CC50 hMRC-5 (cytotoxicity)
Experimental: (§1) The cytotoxicity of compounds was evaluated toward human diploid embryonic lung fibroblast hMRC-5SV2 cells, derived from fetal lung tissue and first described in 1970. hMRC-5SV2 cells were cultured in 96-well plates with five concentrations of the compound (64, 16, 4, 1, and 0.25 μM). After 3 days of incubation, the cell viability was assessed fluorimetrically after the addition of resazurin, and fluorescence was measured (λex = 550 nm, λem = 590 nm). The results were expressed as a percentage reduction in cell growth/viability compared to control wells, and a 50% cytotoxic concentration (CC50) was calculated. The reference cytotoxic drugs were tamoxifen or ivermectin. Additionally, toxicity toward mouse macrophages was qualitatively observed. Three concentrations were included (64, 16, and 4 µM), and the range of toxicity was ranked from the least toxic to the most toxic compound.

[2] = test system: WT LV9 L. donovani intramacrophage amastigotes; test: L. donovani intramacrophage amastigote assay; type: cell-based, Leishmania donovani; details: WT LV9, ± SD in Tables S5/S6, read-out: IC50 L. donovani intramacrophage amastigotes
[3] = test system: Trypanosoma cruzi (Tulahuen CL2 β-galactosidase) amastigotes in hMRC-5SV2 cells; test: T. cruzi intracellular amastigote assay (β-galactosidase/CPRG); type: cell-based
Experimental: A nifurtimox-sensitive strain (Tulahuen CL2 β-galactosidase) in human lung fibroblast hMRC-5SV2 cells was incubated for 7 days in 96-well plates with five concentrations of compound (64, 16, 4, 1, and 0.25 μM). The parasitic burden was evaluated through the activity of the enzyme β-galactosidase on a specific chlorophenol red ß-D-galactopyranoside (CPRG) substrate. Live parasites converted the yellow-orange CPRG substrate into the red chromophore chlorophenol red, yielding a dark-red solution, which could be quantitatively measured at 540 nm after 4 h of incubation at 37 °C. The results were expressed as a percentage reduction in parasite growth/viability compared to control wells, and an IC50 was calculated.

[4] = test system: L. infantum (MHOM/MA(BE)/67) amastigotes in primary peritoneal mouse macrophages; test: L. infantum intramacrophage amastigote assay (microscopic burden); type: cell-based, Leishmania infantum; details: 5 days, mouse macrophages as host
Experimental: L. infantum (MHOM/MA(BE)/67 strain) amastigote were incubated for 5 days in 96-well plates with five concentrations of compound (64, 16, 4, 1, and 0.25 μM). Primary peritoneal mouse macrophages were used as host cells. Parasite burdens (i.e., the number of amastigotes per macrophage) were microscopically assessed. The results were expressed as a percentage reduction in parasite burden compared to untreated control wells, and an IC50 was calculated.

[5] = test system: Trypanosoma brucei brucei trypomastigotes, suramin-sensitive strain (Squib 427); test: T. b. brucei growth/viability assay (resazurin); type: cell-based; details: for IC50: 3 days; for anti-trypanosomal activity (IC50): Trypanosoma (T. cruzi and T. b. brucei)
Experimental: After 3 days, parasite growth was assessed fluorimetrically following the addition of resazurin. After 24 h at 37 °C, fluorescence was measured (λex = 550 nm, λem = 590 nm). The results were expressed as a percentage reduction in parasite growth/viability compared to control wells, and a 50% inhibitory concentration (IC50) was calculated.

[6] = test system: murine macrophages; test: Qualitative toxicity toward mouse macrophages; details: concentration at which toxicity was observed; 64, 16 and 4 µM tested
Experimental: as §1

[7] = Solubility observations (crystals in assay, insolubility in solvents); type: physicochemical; details: for presence of crystals, concentration range / presence of crystals (asterisk mark): noted in L. donovani assay, Table S5
[8] = test system: macrophages
[9] = test system: human diploid embryonic lung fibroblast hMRC-5SV2 cells; test: in vitro
Experimental: as §1

[10] = Trypanosoma cruzi, TULAHUEN, 168 h, intracellular amastigotes, 7 days, read-out: IC50 T. cruzi intramacrophage amastigotes (converted)
[11] = Leishmania infantum, Macrophage, 120 h
[12] = bracketed value after the intramacrophage IC50 (Table S5), Table S6
[13] = intracellular amastigotes, 7 days, read-out: IC50 T. cruzi intramacrophage amastigotes (converted)

Row | Compound | CC50 at 3 days [1] [µM] | IC50 [3, 10] [µM] | IC50 [4, 11] [µM] | IC50 ([5]; Trypanosoma brucei, 72 h) [µM] | Toxicity (T) observed toward murine macrophages [6] | IC50 [2] [µM] | observed macrophage death / lysis observed at [8, 12] [µM] | IC50 [3, 13] [µM] | IC50 [4] [µM] | IC50 [5] [µM] | other results
1 | O=C1CC(c2ccccn2)[S+]([O-])C(c2ccccn2)C1 (mixture of isomers) [3′w, (syn/anti)-cis-2,6-Di-(pyridin-2-yl)-4H-tetra-hydrothiopyran-4-one 1-oxide, as diastereoisomeric mixture] | 8.1 | 0.5 | 2 | 0.1 | T3 (T3 = 4) |  |  |  |  |  | IC50 ([2]; Leishmania donovani): 2.5 µM
2 | O=C1CC(c2ccccc2)SC(c2ccccc2)C1 (racemic) [2a] |  |  |  |  |  | > 100 | 200 |  |  |  | presence of crystals, concentration range [7]: 6.25 to 200 µM
3 | Cc1ccccc1C1CC(=O)CC(c2ccccc2C)S1 (racemic) [2b] |  |  |  |  |  | 14.5 ± 1.9 | > 50 | ≥ 64 | 43.1 | > 64 | CC50 [9]: > 64 µM; presence of crystals (asterisk mark) [7]: ** (presence of crystals at > 100 µM)
4 | Cc1ccc(C2CC(=O)CC(c3ccc(C)cc3)S2)cc1 (racemic) [2c] |  |  |  |  |  | 13.5 ± 2.8 | 200 | 3.7 | > 64 | 0.8 | CC50 [9]: 24.2 µM; presence of crystals (asterisk mark) [7]: ** (presence of crystals at > 100 µM)
5 | O=C1CC(c2ccc(Cl)cc2)SC(c2ccc(Cl)cc2)C1 (racemic) [2f] |  |  |  |  |  | 16.1 ± 1.4 | > 75 | > 64 | 33.2 | 27.4 | CC50 [9]: > 64 µM; presence of crystals (asterisk mark) [7]: * (presence of crystals at > 50 µM)
6 | O=C1CC(c2c(Cl)cccc2Cl)SC(c2c(Cl)cccc2Cl)C1 (racemic) [2h] |  |  |  |  |  |  |  | > 64 | 2 | > 64 | CC50 [9]: > 64 µM; presence of crystals, concentration range [7]: 12.5 to 200 µM
7 | COc1ccc(C2CC(=O)CC(c3ccc(OC)cc3)S2(=O)=O)cc1 (racemic) [4d, (±)-trans-2,6-Di-(p-anisyl)-4H-tetrahydrothiopyran-4-one 1,1-dioxide] | ≥ 64 | ≥ 64 |  |  |  |  |  |  | ≥ 64 | 43.3 | IC50 ([2]; Leishmania donovani): > 100 µM; solubility (observation) ([7]; almost all types of solvent, even at very low concentrations): Solubility issues; also recorded: insolubility; anti-trypanosomal activity (IC50) [5]: almost inactive; also recorded: completely inactive
8 | O=C1CC(c2ccccn2)S(=O)(=O)C(c2ccccn2)C1 (racemic) [4w, (±)-trans-2,6-Di-(pyridin-2-yl)-4H-tetrahydrothiopyran-4-one 1,1-dioxide] | 7.9 | 0.4 | 2 |  | T3 (T3 = 4) | 5 |  |  |  | 0.5 | IC50 L. infantum intramacrophage amastigotes [4]: excellent potency; anti-trypanosomal activity (IC50) [5]: high nanomolar range
9 | O=C(/C=C/c1ccccc1)/C=C/c1ccccc1 [1a] | 52.9 |  | 20.3 | 0.4 |  |  |  |  |  |  | IC50 ([2]; Leishmania donovani): > 100 µM; presence of crystals, concentration range [7]: 12.5 to 200 µM; observed macrophage death / lysis observed at [8]: 200 µM; IC50 ([3]; Trypanosoma cruzi, TULAHUEN, 168 h, read-out: IC50 T. cruzi intramacrophage amastigotes): 16 µM
10 | Cc1ccc(/C=C/C(=O)/C=C/c2ccc(C)cc2)cc1 [1c] | 32.5 | 41.9 | > 64 | 9.3 |  |  |  |  |  |  | presence of crystals, concentration range [7]: 25 to 100 µM
11 | COc1ccc(/C=C/C(=O)/C=C/c2ccc(OC)c(OC)c2)cc1OC [1j] | 6.9 | 2.1 | 30 | 2.1 | T1 (T1 = 64) |  |  |  |  |  | 
12 | COc1ccc(OC)c(/C=C/C(=O)/C=C/c2cc(OC)ccc2OC)c1 [1m] | 1 | 1.1 | 10.4 | 0.8 | T1 (T1 = 64) |  |  |  |  |  | 
13 | COc1cc(Br)c(OC)c(/C=C/C(=O)/C=C/c2cc(OC)cc(Br)c2OC)c1 [1q] | 0.8 | 0.9 | 10.4 | 0.9 | T1 (T1 = 64) |  |  |  |  |  | 
14 | CC(=O)Nc1ccc(/C=C/C(=O)/C=C/c2ccc(NC(C)=O)cc2)cc1 [1v] |  |  |  |  |  | > 50 | 100 | 10.2 | 8.1 | 0.5 | CC50 [9]: 34 µM
15 | O=C(/C=C/c1ccccn1)/C=C/c1ccccn1 [1w] | 1.9 | 0.3 | 0.4 | 0.03 | T3 (T3 = 4) |  |  |  |  |  | 
16 | O=C(/C=C/c1ccco1)/C=C/c1ccco1 [1z] | > 64 | 39.9 | 32.5 | 7.6 | T1 (T1 = 64) |  |  |  |  |  | IC50 ([2]; Leishmania donovani): 14 ± 2.6 µM; observed macrophage death / lysis observed at [8]: > 50 µM
17 | Cc1ccc(/C=C/C(=O)/C=C/c2ccc(C)o2)o1 [1za] | 5.4 | 2.2 | 8.1 | 8.2 | T2 (T2 = 16) |  |  |  |  |  | 
18 | Cc1ccc(/C=C/C(=O)/C=C/c2ccccc2)cc1 [1’a] |  |  |  |  |  |  |  | 2.6 | 32.5 | 0.5 | CC50 [9]: 47 µM; presence of crystals, concentration range [7]: 3.1 to 200 µM
19 | COc1ccc(/C=C/C(=O)/C=C/c2ccccc2)cc1 [1’h] |  |  |  |  |  | 17.4 ± 1.9 | > 37.5 |  |  |  | presence of crystals (asterisk mark) [7]: ** (presence of crystals at > 100 µM)
20 | COc1ccc(/C=C/C(=O)/C=C/c2ccc3ccccc3c2)cc1 [1’j] |  |  |  |  |  | 58.2 ± 8 | > 150 |  |  |  | presence of crystals (asterisk mark) [7]: ** (presence of crystals at > 100 µM)
21 | CN(C)c1ccc(/C=C/C(=O)/C=C/c2nccs2)cc1 [1’s] |  |  |  |  |  | 11.5 ± 0.6 | > 37.5 | 11 | 38 | 0.4 | CC50 [9]: > 64 µM; presence of crystals (asterisk mark) [7]: * (presence of crystals at > 50 µM)
22 | O=C1CC(c2ccccn2)[S+]([O-])C(c2ccccn2)C1 (stereo not drawn) [3w, (±)-trans-2,6-Di-(pyridin-2-yl)-4H-tetrahydrothiopyran-4-one 1-oxide] | 8 | 0.8 | 2 | 0.1 | T3 (T3 = 4) |  |  |  |  |  | IC50 ([2]; Leishmania donovani): 25 µM
23 | COc1ccc(C2CC(=O)CC(c3ccc(OC)cc3)[S+]2[O-])cc1 (stereo not drawn) [3″d, (anti)- and (syn)-cis-2,6-Di-(p-anisyl)-4H-tetrahydro-thiopyran-4-one 1-oxides] |  |  |  |  | T1 (T1 = 64) | 35 |  | 8.5 | 27.3 | 2.4 | CC50 ([9]; human, 3 days): 32 µM; IC50 T. cruzi intramacrophage amastigotes ([3]; intracellular amastigotes, 7 days): moderate potency; IC50 L. infantum intramacrophage amastigotes [4]: moderate potency
24 | O=C1CC(c2ccccn2)S(=O)(=O)C(c2ccccn2)C1 (stereo not drawn) [4′w, cis-2,6-Di-(pyridin-2-yl)-4H-tetrahydrothiopyran-4-one 1,1-dioxide] |  |  |  |  | T3 (T3 = 4) | 1.6 |  | 0.4 | 2 | 0.1 | CC50 ([9]; human, 3 days): 7.5 µM; IC50 L. infantum intramacrophage amastigotes [4]: excellent potency; anti-trypanosomal activity (IC50) [5]: high nanomolar range
